Measured values published in patent US6433151B1, “Erythromycin derivatives, a process for their preparation and their use as medicaments” (Aventis Pharma S.A., priority 1998, dated 2002).

What was measured:
Experiment in all cases: Method of dilutions in a liquid medium (MIC)
Format in all cases: cell-based
S. pneumoniae 030SJ51 = conditions: S. pneumoniae 030SJ51, ery R; reading after 24 hours
Procedure: (§1) Method of Dilutions in a Liquid Medium
(§2) A series of tubes in which the same amount of sterile nutrient medium is distributed is prepared. Increasing amounts of the product to be studied are distributed in each tube, and each tube is then seeded with a strain of bacteria.
(§3) After incubation for twenty-four hours in an oven at 37° C., the inhibition of growth is evaluated by transillumination, from which the minimum inhibitory concentrations (MIC), expressed in micrograms/cm^3, can be determined.
(§4) The following results were obtained with the product from example 1 and from example 2 (reading taken after 24 hours).

S. pneumoniae 032UC1 = conditions: S. pneumoniae 032UC1, ery S; reading after 24 hours
Procedure: as §1, §2, §3, §4

S. aureus 011UC4 = conditions: reading after 24 hours
Procedure: as §1, §2, §3, §4

S. agalactiae 02B1HT1 = conditions: S. agalactiae 02B1HT1, ery S; reading after 24 hours
Procedure: as §1, §2, §3, §4

S. mitis 02MitCB1 = conditions: S. mitis 02MitCB1, Ery S; reading after 24 hours
Procedure: as §1, §2, §3, §4

S. agalactiae 02B1SJ1c = conditions: ery R, reading after 24 hours
Procedure: as §1, §2, §3, §4

S. pneumoniae 030GR20 = conditions: S. pneumoniae 030GR20, ery S; reading after 24 hours
Procedure: as §1, §2, §3, §4

S. pneumoniae 030CR18c = conditions: ery R, reading after 24 hours
Procedure: as §1, §2, §3, §4

E. faecalis 02D2UC1 = conditions: E. faecalis 02D2UC1, ery S; reading after 24 hours
Procedure: as §1, §2, §3, §4

[1] = tested on: Streptococcus gr. G 02GOGR5; conditions: Streptococcus gr. G 02GOGR5, Ery S; reading after 24 hours
Procedure: as §1, §2, §3, §4

S. pneumoniae 030PW23c = conditions: ery R, reading after 24 hours
Procedure: as §1, §2, §3, §4

S. sanguis 02SgGr10I = conditions: ery R, reading after 24 hours
Procedure: as §1, §2, §3, §4

E. faecium 02D3HT1 = conditions: E. faecium 02D3HT1, Ery S; reading after 24 hours
Procedure: as §1, §2, §3, §4

S. mitis 02MitGR16I = conditions: ery R, reading after 24 hours
Procedure: as §1, §2, §3, §4

S. aureus 011GO25I = conditions: oxa S ery R, reading after 24 hours
Procedure: as §1, §2, §3, §4

S. pneumoniae 030R01I = conditions: ery R, reading after 24 hours
Procedure: as §1, §2, §3, §4

S. epidermidis 012GO11I = conditions: oxa S ery R, reading after 24 hours
Procedure: as §1, §2, §3, §4

E. faecalis 02D2DU15c = conditions: ery R, reading after 24 hours
Procedure: as §1, §2, §3, §4

S. pyogenes 02A1UC1 = conditions: S. pyogenes 02A1UC1, ery S; reading after 24 hours
Procedure: as §1, §2, §3, §4

S. pneumoniae 030SJ1c = conditions: ery R, reading after 24 hours
Procedure: as §1, §2, §3, §4

[2] = S. aureus 011UC4 + serum 50%, ery S

SMILES	minimum inhibitory concentrations (MIC) (S. pneumoniae 030SJ51)	minimum inhibitory concentrations (MIC) (S. pneumoniae 032UC1)	minimum inhibitory concentrations (MIC) (S. aureus 011UC4; [2])	minimum inhibitory concentrations (MIC) (S. aureus 011UC4; S. aureus 011UC4, ery S)	minimum inhibitory concentrations (MIC) (S. agalactiae 02B1HT1)	minimum inhibitory concentrations (MIC) (S. mitis 02MitCB1)	minimum inhibitory concentrations (MIC) (S. agalactiae 02B1SJ1c)	minimum inhibitory concentrations (MIC) (S. pneumoniae 030GR20)	minimum inhibitory concentrations (MIC) (S. pneumoniae 030CR18c)	minimum inhibitory concentrations (MIC) (E. faecalis 02D2UC1)	minimum inhibitory concentrations (MIC) [1]	minimum inhibitory concentrations (MIC) (S. pneumoniae 030PW23c)	minimum inhibitory concentrations (MIC) (S. sanguis 02SgGr10I)	minimum inhibitory concentrations (MIC) (E. faecium 02D3HT1)	minimum inhibitory concentrations (MIC) (S. mitis 02MitGR16I)	minimum inhibitory concentrations (MIC) (S. aureus 011GO25I)	minimum inhibitory concentrations (MIC) (S. pneumoniae 030R01I)	minimum inhibitory concentrations (MIC) (S. epidermidis 012GO11I)	minimum inhibitory concentrations (MIC) (E. faecalis 02D2DU15c)	minimum inhibitory concentrations (MIC) (S. pyogenes 02A1UC1)	also measured
CCC1OC(=O)C(C)C(=O)C(C)C(OC2OC(C)CC(NC)C2O)C(C)(OC)CC(C)C(=O)C(C)C2N(CCCCn3cnc(-c4cccnc4)c3)C(=O)OC12C [Ex. 1, N-Demethyl-11,12-dideoxy-3-de[(2,6-dideoxy-3-C-methyl-3-O-methyl-alpha-L-ribohexopyranosyl)-oxy]-6-O-methyl-3-oxo-12,11-[oxycarbonyl[[4-[4-(3-pyridinyl)-1H-imidazol-1-yl]butyl]imino]]-erythromycin]	0.080 micrograms/cm^3	<=0.02 micrograms/cm^3	0.040 micrograms/cm^3	0.300 micrograms/cm^3	<=0.02 micrograms/cm^3	0.080 micrograms/cm^3	0.600 micrograms/cm^3	<=0.02 micrograms/cm^3	10.000 micrograms/cm^3	0.080 micrograms/cm^3	0.080 micrograms/cm^3	0.150 micrograms/cm^3	0.150 micrograms/cm^3	0.080 micrograms/cm^3	0.080 micrograms/cm^3	5.000 micrograms/cm^3	0.150 micrograms/cm^3	0.150 micrograms/cm^3	>40 micrograms/cm^3	0.800 micrograms/cm^3	minimum inhibitory concentrations (MIC) (S. pneumoniae 030SJ1c): 0.080 micrograms/cm^3
CCC1OC(=O)C(C)C(=O)C(C)C(OC2OC(C)CC(NC)C2O)C(C)(OC)CC(C)C(=O)C(C)C2N(NCCCc3ccnc4ccccc34)C(=O)OC12C [Ex. 2, N-Demethyl-11,12-dideoxy-3-de((2,6-dideoxy-3-C-methyl-3-O-methyl-alpha-L-ribohexopyranosyl)oxy)-6-O-methyl-3-oxo-12,11-(oxycarbonyl(2-(3-(4-quinolinyl)-propyl)-hydrazono))-erythromycin]	0.080 micrograms/cm^3	<=0.01 micrograms/cm^3	0.150 micrograms/cm^3	0.080 micrograms/cm^3	0.020 micrograms/cm^3	<=0.01 micrograms/cm^3	0.150 micrograms/cm^3	<=0.01 micrograms/cm^3	2.500 micrograms/cm^3	0.040 micrograms/cm^3	0.040 micrograms/cm^3	0.080 micrograms/cm^3	0.150 micrograms/cm^3	0.040 micrograms/cm^3	0.080 micrograms/cm^3	0.600 micrograms/cm^3	0.300 micrograms/cm^3	0.300 micrograms/cm^3	>20 micrograms/cm^3	0.040 micrograms/cm^3	minimum inhibitory concentrations (MIC) (S. pneumoniae 030SJ1c): 0.150 micrograms/cm^3
